Reference: PubChem BioAssay AID1963959 (Molecular Pharmacology Branch, DTP, NCI, 2024)
pIC50: −log10 of the molar value.

System: T-47D spheroids with HUVEC/MSC, viability
Test: Anticancer human tumor T-47D cell line growth inhibition [PI3K];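 also: spheroids exposed to agents for seven days before reading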;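 as to viability, T/C: percent of DMSO vehicle control luminescence so 100% = untreated growth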
Conditions: for pIC50: curve of first compound; for viability, T/C: stronger effect = lower value
From the text: Combinatorial screen of targeted agents with the PI3K inhibitors inavolisib, alpelisib, duvelisib, and copanlisib in multi-cell type tumor spheroids
A high-throughput screen of multi-cell type tumor spheroids was designed to identify active combinations of targeted small molecules and PI3K pathway inhibitors. Complex spheroids include a stromal component modeled by human endothelial cells (HUVEC) and fibroblasts modeled by human mesenchymal stem cells (MSCs). The concentration ranges selected for each drug and investigational agent were based upon clinically achievable concentrations if the clinical Cmax of the agent was known.
Compounds. The drugs and investigational agents: inavolisib (NSC800729), alpelisib (NSC765974), duvelisib (NSC772469), copanlisib (NSC816437), ipatasertib (NSC767898), afuresertib (NSC778305), talazoparib (NSC767125), sapanisertib (NSC764658), selumetinib (NSC741078), tovorafenib (DAY101, NSC766906), vemurafenib (NSC761431), ravoxertinib (NSC781343), sotorasib (NSC818433), MRTX1133 (NSC 836407), abemaciclib (NSC 768073), palbociclib (NSC758247), venetoclax (NSC 766270), SY5609 (NSC837396), enzalutamide (NSC755605), and darolutamide (NSC825331), were obtained from the National Cancer Institute (NCI) Developmental Therapeutics Program Chemical Repository. The FDA-approved anticancer drug set is available from the NCI Developmental Therapeutics Program. […] The stock solutions were prepared in dimethyl sulfoxide (DMSO, Sigma-Aldrich, St. Louis, MO, cat. D2650) at 800-fold the tested concentration and stored at -70 degrees C prior to their use. All drugs and investigational agents were tested over a range starting from a high concentration at or near the clinical Cmax and decreasing in half-log increments. If the clinical Cmax for an agent had not been determined, the highest concentration tested was 10 microM.
Cell Culture. All cells were maintained in an incubator at 37 degrees C and 5% CO2 with 95% humidity. The PDC lines were cultured according to standard operating procedures established by the NCI PDMR (https://pdmr.cancer.gov/sops/default.htm). All PDCs were thawed and cultured in Matrigel-coated flasks prepared with a working solution of 1X Ham's F-12 nutrient mix, without supplementation (Invitrogen, Waltham, MA, cat. 11765054), 100 U/mL penicillin-streptomycin (Invitrogen, cat. 15140122), and 2.5% Matrigel (Corning Inc., Corning, NY, cat. 354248) for the first three passages. The 354836-022-R-J1-PDC, 475296-252-R-J1-PDC, and 997726-040-R-J2-PDC lines were cultured in 6A media, which includes advanced DMEM/F-12 (Thermo Fisher Scientific, cat. 12634028), 10 mM HEPES (Thermo Fisher Scientific, cat. 15630080), 1X GlutaMAX supplement (Thermo Fisher Scientific, cat. 35050061), 0.1 mg/mL primocin (InvivoGen, San Diego, CA, cat. ant-pm-2), 10% defined fetal bovine serum, heat inactivated (HyClone Laboratories Inc., Logan, UT, cat. SH30070.03HI), 50% L-WRN conditioned media (ATCC, cat. CRL-3276), 1.25 mM N-Acetyl-L-cysteine (Sigma-Aldrich, cat. A9165), 10 mM nicotinamide (Sigma-Aldrich, cat. N0636), 1X B-27 supplement (Thermo Fisher Scientific, cat. 17504044), 1X N-2 supplement (Thermo Fisher Scientific, cat. 17502048), and 10 microM Y-27632 dihydrochloride (Tocris Bioscience, Bristol, United Kingdom, cat. 1254). The 624824-186-R-J2-PDC line was cultured in 6C/Colon 1B media, which includes all 6A media components plus 50 ng/mL human EGF recombinant protein (Thermo Fisher Scientific, cat. PHG0311). […]

With CCN1CCN(Cc2ccc(Nc3ncc(F)c(-c4cc(F)c5nc(C)n(C(C)C)c5c4)n3)nc2)CC1 + COc1c(OCCCN2CCOCC2)ccc2c3n(c(=NC(=O)c4cnc(N)nc4)nc12)CCN3 the pIC50 (second compound 0.00316 µM) was less than 6.00, the pIC50 (second compound 0.01 µM) was less than 6.00 and the pIC50 (second compound 0.0316 µM) was 8.08. The pIC50 (second compound 0.1 µM) was greater than 8.50, the pIC50 (second compound 0.316 µM) was greater than 8.50 and the pIC50 (second compound 1 µM) was greater than 8.50. The viability, T/C (second compound 0.00316 µM, first compound 0.00316 µM) was 81.5%, the viability, T/C (second compound 0.00316 µM, first compound 0.01 µM) was 77.9% and the viability, T/C (second compound 0.00316 µM, first compound 0.0316 µM) was 83.2%. The viability, T/C (second compound 0.00316 µM, first compound 0.1 µM) was 74.8%, the viability, T/C (second compound 0.00316 µM, first compound 0.316 µM) was 73.2% and the viability, T/C (second compound 0.00316 µM, first compound 1 µM) was 88.6%. It also gave a viability, T/C (second compound 0.01 µM, first compound 0.00316 µM) of 99.1%, a viability, T/C (second compound 0.01 µM, first compound 0.01 µM) of 75.3% and a viability, T/C (second compound 0.01 µM, first compound 0.0316 µM) of 70.5%. It also gave a viability, T/C (second compound 0.01 µM, first compound 0.1 µM) of 71.5%, a viability, T/C (second compound 0.01 µM, first compound 0.316 µM) of 67.6% and a viability, T/C (second compound 0.01 µM, first compound 1 µM) of 72.5%. For the same compound, the viability, T/C (second compound 0.0316 µM, first compound 0.00316 µM) was 64%, the viability, T/C (second compound 0.0316 µM, first compound 0.01 µM) was 47.8% and the viability, T/C (second compound 0.0316 µM, first compound 0.0316 µM) was 41.2%. For the same compound, the viability, T/C (second compound 0.0316 µM, first compound 0.1 µM) was 43.4%, the viability, T/C (second compound 0.0316 µM, first compound 0.316 µM) was 44.6% and the viability, T/C (second compound 0.0316 µM, first compound 1 µM) was 56.5%. It also gave a viability, T/C (second compound 0.1 µM, first compound 0.00316 µM) of 41.3%, a viability, T/C (second compound 0.1 µM, first compound 0.01 µM) of 25.1% and a viability, T/C (second compound 0.1 µM, first compound 0.0316 µM) of 27.7%. For the same compound, the viability, T/C (second compound 0.1 µM, first compound 0.1 µM) was 24.4%, the viability, T/C (second compound 0.1 µM, first compound 0.316 µM) was 29% and the viability, T/C (second compound 0.1 µM, first compound 1 µM) was 45.3%. The viability, T/C (second compound 0.316 µM, first compound 0.00316 µM) was 13%, the viability, T/C (second compound 0.316 µM, first compound 0.01 µM) was 12.3% and the viability, T/C (second compound 0.316 µM, first compound 0.0316 µM) was 14.8%. The viability, T/C (second compound 0.316 µM, first compound 0.1 µM) was 16.3%, the viability, T/C (second compound 0.316 µM, first compound 0.316 µM) was 23.4% and the viability, T/C (second compound 0.316 µM, first compound 1 µM) was 34.4%. For the same compound, the viability, T/C (second compound 1 µM, first compound 0.00316 µM) was 6.17%, the viability, T/C (second compound 1 µM, first compound 0.01 µM) was 5.48% and the viability, T/C (second compound 1 µM, first compound 0.0316 µM) was 7.16%. The viability, T/C (second compound 1 µM, first compound 0.1 µM) was 6.14%, the viability, T/C (second compound 1 µM, first compound 0.316 µM) was 12.2% and the viability, T/C (second compound 1 µM, first compound 1 µM) was 24.2%.
